Data taken from patent US11912693B2, “Compounds for modulating S1P1 activity and methods of using the same” (TREVENA, INC., priority 2017, dated 2024).

Columns and labels:
[1] = target: T1, human sphingosine-1-phosphate receptor 1 (S1P1) (Homo sapiens (Human), UniProt P21453); test: Inhibition of cAMP production (HTRF cAMP HiRange), S1P1 CHO-K1 cells; type: cell-based; settings: for Emax: CHO-K1, efficacy (SPAN) normalized to fingolimod, read-out: hS1P1 cAMP SPAN
Summary of the method: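 CHO-K1 cells stably co-expressing human S1P1 (C-terminal Prolink tag) and EA-β-arrestin2 were grown in AssayComplete Media 6 at 37° C. and 5% CO2, plated, and incubated overnight. Agonist-driven inhibition of intracellular cAMP was read by TR-FRET with the HTRF cAMP HiRange kit on a PheraStar reader. Potency is pEC50, and efficacy (SPAN) is normalized to fingolimod.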
Target sequence in this assay (P21453 whole entry, looked up): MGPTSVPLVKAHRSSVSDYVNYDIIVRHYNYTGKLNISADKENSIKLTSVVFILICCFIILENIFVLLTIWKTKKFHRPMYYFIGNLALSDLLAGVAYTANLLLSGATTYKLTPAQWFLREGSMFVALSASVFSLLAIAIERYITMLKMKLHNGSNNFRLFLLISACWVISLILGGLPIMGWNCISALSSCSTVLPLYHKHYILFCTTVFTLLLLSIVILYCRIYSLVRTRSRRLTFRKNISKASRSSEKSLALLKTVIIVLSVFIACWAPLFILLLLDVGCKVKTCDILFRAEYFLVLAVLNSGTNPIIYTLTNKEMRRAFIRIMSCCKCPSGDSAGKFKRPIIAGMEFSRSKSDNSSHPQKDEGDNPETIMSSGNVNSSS

[2] = target: T1, human sphingosine-1-phosphate receptor 1 (S1P1); test: β-Arrestin2 recruitment assay (PathHunter), S1P1 CHO-K1 cells; type: cell-based; settings: for Emax: CHO-K1, efficacy (SPAN) normalized to fingolimod, read-out: hS1P1 B-arrestin2 SPAN
Summary of the method: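 Enzyme-fragment complementation read-out: agonist-driven β-arrestin2 binding to ProLink-tagged human S1P1 in stable CHO-K1 cells restores β-galactosidase, measured 1 h at room temperature after a 60 min 37° C. compound incubation. Potency as pEC50, efficacy relative to fingolimod (SPAN).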
Target sequence in this assay (P21453 whole entry, looked up): as above
Target sequence in this assay (P32121 whole entry partner, looked up): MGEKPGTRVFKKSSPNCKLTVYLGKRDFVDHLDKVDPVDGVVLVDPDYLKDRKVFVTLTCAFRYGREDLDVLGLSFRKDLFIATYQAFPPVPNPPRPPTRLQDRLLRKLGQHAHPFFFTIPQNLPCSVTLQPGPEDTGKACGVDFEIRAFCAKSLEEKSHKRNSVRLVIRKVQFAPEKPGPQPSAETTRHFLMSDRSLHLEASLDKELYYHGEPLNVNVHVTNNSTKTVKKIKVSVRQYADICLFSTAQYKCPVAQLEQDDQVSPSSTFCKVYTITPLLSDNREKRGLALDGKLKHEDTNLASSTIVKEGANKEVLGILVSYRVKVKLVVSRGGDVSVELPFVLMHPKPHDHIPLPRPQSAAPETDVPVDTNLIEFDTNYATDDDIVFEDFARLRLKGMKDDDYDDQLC

[3] = inhibition of cAMP production, S1P1 CHO-K1 cells
[4] = β-arrestin2 recruitment, S1P1 CHO-K1 cells

SMILES	Emax [1] [%]	hS1P1 cAMP pEC50 [1, 3]	Emax [2] [%]	hS1P1 B-arrestin2 pEC50 [2, 4]	EC50 ([1]; inhibition of cAMP production, S1P1 CHO-K1 cells, read-out: hS1P1 cAMP pEC50 (converted)) [µM]	EC50 ([2]; β-arrestin2 recruitment, S1P1 CHO-K1 cells, read-out: hS1P1 B-arrestin2 pEC50 (converted)) [µM]
CC(C)(O)Cn1nnc2cc(-c3nc(-c4ccncc4C(F)(F)F)no3)ccc21 [Compound 460, 2-methyl-1-(5-{3-[3-(trifluoromethyl)pyridin-4-yl]-1,2,4-oxadiazol-5-yl}-1H-1,2,3-benzotriazol-1-yl)propan-2-ol]	> 75	<6.5	> 75	<5	–	–
CC(C)Cn1nnc2cc(-c3nc4c(Br)cccc4o3)ccc21 [Compound 461, 4-bromo-2-(1-isobutyl-1H-benzo[d][1,2,3]triazol-5-yl)benzo[d]oxazole]	> 75	<6.5	> 75	<5	–	–
CC(C)n1nnc2cc(-c3nc4c(o3)COc3ccccc3-4)ccc21 [Compound 462, 5-{4H-chromeno[4,3-d][1,3]oxazol-2-yl}-1-(propan-2-yl)-1H-1,2,3-benzotriazole]	> 75	>6.5	> 75	<5	–	–
CCC1(CC)CC(=O)c2cc(-c3nc(-c4ccc[nH]4)no3)ccc2O1 [Compound 464, 6-(3-(1H-pyrrol-2-yl)-1,2,4-oxadiazol-5-yl)-2,2-diethylchroman-4-one]	–	>6.5	–	<5	–	–
CCC1(CC)CC(=O)c2cc(-c3nc(-c4ccco4)no3)ccc2O1 [Compound 465, 2,2-diethyl-6-(3-(furan-2-yl)-1,2,4-oxadiazol-5-yl)chroman-4-one]	–	>6.5	–	>5	–	–
CCC1(CC)CC(=O)c2cc(-c3nc(-c4cnc[nH]4)no3)ccc2O1 [Compound 466, 6-(3-(1H-imidazol-5-yl)-1,2,4-oxadiazol-5-yl)-2,2-diethylchroman-4-one]	–	<6.5	–	<5	–	–
CCC1(CC)CC(=O)c2cc(-c3nc(-c4cccs4)no3)ccc2O1 [Compound 467, 2,2-diethyl-6-(3-(thiophen-2-yl)-1,2,4-oxadiazol-5-yl)chroman-4-one]	–	>6.5	–	>5	–	–
CCC1(CC)CC(=O)c2cc(-c3nc(-c4ccsc4)no3)ccc2O1 [Compound 468, 2,2-diethyl-6-(3-(thiophen-3-yl)-1,2,4-oxadiazol-5-yl)chroman-4-one]	–	>6.5	–	>5	–	–
CCC1(CC)CC(=O)c2cc(-c3nc(-c4ccn[nH]4)no3)ccc2O1 [Compound 470, 6-(3-(1H-pyrazol-5-yl)-1,2,4-oxadiazol-5-yl)-2,2-diethylchroman-4-one]	–	<6.5	–	<5	–	–
CC(C)Nc1ccc(-c2nnc(-c3ccc4c(c3)CCC(=O)N4)o2)cc1C#N [Compound 473, 5-[5-(2-oxo-1,2,3,4-tetrahydroquinolin-6-yl)-1,3,4-oxadiazol-2-yl]-2-[(propan-2-yl)amino]benzonitrile]	–	>6.5	–	>5	–	–
CC(C)n1nnc2cc(-c3nc(-c4ccccn4)co3)ccc21 [Compound 474, 1-(propan-2-yl)-5-[4-(pyridin-2-yl)-1,3-oxazol-2-yl]-1H-1,2,3-benzotriazole]	> 75	<6.5	> 75	<5	–	–
N#Cc1cc(-c2nnc(-c3ccc4c(c3)CCC(=O)N4)o2)ccc1NCC1CC1 [Compound 475, 2-[(cyclopropylmethyl)amino]-5-[5-(2-oxo-1,2,3,4-tetrahydroquinolin-6-yl)-1,3,4-oxadiazol-2-yl]benzonitrile]	–	>6.5	–	>5	–	–
N#Cc1cc(-c2nnc(-c3ccc4c(c3)CCC(=O)N4)o2)ccc1NCCF [Compound 476, 2-[(2-fluoroethyl)amino]-5-[5-(2-oxo-1,2,3,4-tetrahydroquinolin-6-yl)-1,3,4-oxadiazol-2-yl]benzonitrile]	–	>6.5	–	>5	–	–
N#Cc1cc(-c2nnc(-c3ccc4c(c3)CCC(=O)N4)o2)ccc1NCC(F)F [Compound 477, 2-[(2,2-difluoroethyl)amino]-5-[5-(2-oxo-1,2,3,4-tetrahydroquinolin-6-yl)-1,3,4-oxadiazol-2-yl]benzonitrile]	–	>6.5	–	>5	–	–
O=C1CC(CO)(CO)Oc2ccc(-c3nc(-c4cccnc4)no3)cc21 [Compound 478, 2,2-bis(hydroxymethyl)-6-[3-(pyridin-3-yl)-1,2,4-oxadiazol-5-yl]-3,4-dihydro-2H-1-benzopyran-4-one]	–	<6.5	–	<5	–	–
O=C1c2cc(-c3nc(-c4cccnc4)no3)ccc2OC(CO)(CO)C1Br (stereo not drawn) [Compound 479, 3-bromo-2,2-bis(hydroxymethyl)-6-[3-(pyridin-3-yl)-1,2,4-oxadiazol-5-yl]-3,4-dihydro-2H-1-benzopyran-4-one]	–	<6.5	–	<5	–	–
CC1(C)Oc2ccc(-c3nc(-c4ccncc4)no3)cc2C1=O [Compound 480, 2,2-dimethyl-5-[3-(pyridin-4-yl)-1,2,4-oxadiazol-5-yl]-2,3-dihydro-1-benzofuran-3-one]	–	<6.5	–	<5	–	–
CC1(C)Oc2ccc(-c3nc(-c4cccnc4)no3)cc2C1=O [Compound 481, 2,2-dimethyl-5-[3-(pyridin-3-yl)-1,2,4-oxadiazol-5-yl]-2,3-dihydro-1-benzofuran-3-one]	–	<6.5	–	>5	–	–
O=C1CC(CO)(CO)Oc2ccc(-c3nc(-c4ccncc4)no3)cc21 [Compound 482, 2,2-bis(hydroxymethyl)-6-[3-(pyridin-4-yl)-1,2,4-oxadiazol-5-yl]-3,4-dihydro-2H-1-benzopyran-4-one]	–	<6.5	–	<5	–	–
O=C1c2cc(-c3nc(-c4ccncc4)no3)ccc2OC(CO)(CO)C1Br (stereo not drawn) [Compound 483, 3-bromo-2,2-bis(hydroxymethyl)-6-[3-(pyridin-4-yl)-1,2,4-oxadiazol-5-yl]-3,4-dihydro-2H-1-benzopyran-4-one]	–	<6.5	–	<5	–	–
CC(C)Nc1ccc(-c2nnc(-c3ccc4[nH]c(=O)oc4c3)o2)cc1C#N [Compound 484, 5-[5-(2-oxo-2,3-dihydro-1,3-benzoxazol-6-yl)-1,3,4-oxadiazol-2-yl]-2-[(propan-2-yl)amino]benzonitrile]	–	>6.5	–	>5	–	–
CCC1(CC)CC(=O)c2cc(-c3nc(-c4cc[nH]c4)no3)ccc2O1 [Compound 485, 6-(3-(1H-pyrrol-3-yl)-1,2,4-oxadiazol-5-yl)-2,2-diethylchroman-4-one]	–	>6.5	–	<5	–	–
N#Cc1cc(-c2nnc(-c3ccc4[nH]c(=O)oc4c3)o2)ccc1NCC1CC1 [Compound 486, 2-[(cyclopropylmethyl)amino]-5-[5-(2-oxo-2,3-dihydro-1,3-benzoxazol-6-yl)-1,3,4-oxadiazol-2-yl]benzonitrile]	–	>6.5	–	<5	–	–
N#Cc1cc(-c2nnc(-c3ccc4[nH]c(=O)oc4c3)o2)ccc1NCCF [Compound 487, 2-[(2-fluoroethyl)amino]-5-[5-(2-oxo-2,3-dihydro-1,3-benzoxazol-6-yl)-1,3,4-oxadiazol-2-yl]benzonitrile]	–	<6.5	–	>5	–	–
N#Cc1cc(-c2nnc(-c3ccc4[nH]c(=O)oc4c3)o2)ccc1NCC(F)F [Compound 488, 2-[(2,2-difluoroethyl)amino]-5-[5-(2-oxo-2,3-dihydro-1,3-benzoxazol-6-yl)-1,3,4-oxadiazol-2-yl]benzonitrile]	–	>6.5	–	>5	–	–
Cc1cc(-c2noc(-c3ccc4c(c3)nnn4C(C)C)n2)c(C)o1 [Compound 490, 5-[3-(2,5-dimethylfuran-3-yl)-1,2,4-oxadiazol-5-yl]-1-(propan-2-yl)-1H-1,2,3-benzotriazole]	> 75	–	> 75	–	< 0.316	< 10
Cc1occc1-c1noc(-c2ccc3c(c2)nnn3CC(C)(C)O)n1 [Compound 492, 2-methyl-1-{5-[3-(2-methylfuran-3-yl)-1,2,4-oxadiazol-5-yl]-1H-1,2,3-benzotriazol-1-yl}propan-2-ol]	> 75	<6.5	> 75	<5	–	–
